# Data: ChEMBL document CHEMBL1135343, “Glutathione-like tripeptides as inhibitors of glutathionylspermidine synthetase. Part 2: substitution of the glycine part” (Bioorg Med Chem Lett, 2002)
# Where “and” joins values, the source holds several entries; their conditions need not be identical. Equal entries are not always repeated. Numbered stars: 1 amine (or outer) side, 2 acyl side, 3 side chain; on linkers, the order of the positions; unused ones are H or OH. Square brackets hold non-standard residues; d marks the D form. Peptide text beside a SMILES is read from it. γGlu = O=C(O)[C@H](CCC(=O)[*:2])N[*:1]; Orn = NCCC[C@H](N)C(=O)O; Dab = NCC[C@H](N)C(=O)O; Nva = CCC[C@H](N)C(=O)O; Dap = NC[C@H](N)C(=O)O
# Columns and labels:
# [1] = target: T1, Glutathionylspermidine synthase (Crithidia fasciculata, UniProt P90518); assay: Inhibitory constant against glutathionylspermidine synthetase (GspS) in Crithidia fasciculata
# T1 sequence (P90518 whole entry): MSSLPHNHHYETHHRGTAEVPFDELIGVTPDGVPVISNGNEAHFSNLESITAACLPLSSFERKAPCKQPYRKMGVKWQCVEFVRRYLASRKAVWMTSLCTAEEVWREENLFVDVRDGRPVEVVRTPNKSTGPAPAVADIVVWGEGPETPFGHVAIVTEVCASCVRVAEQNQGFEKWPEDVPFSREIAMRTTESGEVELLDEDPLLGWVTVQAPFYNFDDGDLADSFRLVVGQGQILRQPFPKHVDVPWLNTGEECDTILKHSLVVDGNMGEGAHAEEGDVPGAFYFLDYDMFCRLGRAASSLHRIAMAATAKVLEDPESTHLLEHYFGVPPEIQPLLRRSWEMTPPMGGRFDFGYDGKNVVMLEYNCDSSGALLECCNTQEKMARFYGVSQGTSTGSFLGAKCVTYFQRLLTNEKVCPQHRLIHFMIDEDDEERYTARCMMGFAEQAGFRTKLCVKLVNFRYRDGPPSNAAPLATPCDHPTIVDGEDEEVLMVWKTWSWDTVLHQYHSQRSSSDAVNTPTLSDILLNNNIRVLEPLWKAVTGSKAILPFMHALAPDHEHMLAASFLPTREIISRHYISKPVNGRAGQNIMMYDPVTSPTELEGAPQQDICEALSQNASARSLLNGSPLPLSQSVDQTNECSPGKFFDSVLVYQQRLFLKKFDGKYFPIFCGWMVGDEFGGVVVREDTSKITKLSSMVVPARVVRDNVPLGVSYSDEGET
# [2] = target: T1, Glutathionylspermidine synthase; assay: (§1) Tested against glutathionylspermidine synthetase (GspS) in Crithidia fasciculata
# [3] = target: T2, Glutathionylspermidine synthase (Crithidia fasciculata) (UniProt P90518); assay: as §1; parameters: concentration or dose not given beside the values; conditions: concentration not given here
# T2 sequence (whole entry): T1 sequence (P90518 whole entry)
SMILES,Ki [1],IC50 [2] [µM],inhibition [3] [%]
CC(C)C[C@H](NC(=O)CC[C@H](NC(=O)OC(C)(C)C)C(=O)OC(C)(C)C)C(=O)N[C@@H](CCCCNCCCNC(=O)OC(C)(C)C)C(=O)O,–,157,62
CC(C)C[C@H](NC(=O)[C@H](CC(C)C)NC(=O)CC[C@H](N)C(=O)O)C(=O)O,–,365,59
CCCC[C@H](NC(=O)[C@H](CC(C)C)NC(=O)CC[C@H](N)C(=O)O)C(=O)O,–,–,53
CC(C)C[C@H](NC(=O)CC[C@H](N)C(=O)O)C(=O)N[C@@H](CC(=O)O)C(=O)O (γGlu-Leu-Asp-OH),–,156,69
CC(C)C[C@H](NC(=O)CC[C@H](N)C(=O)O)C(=O)N[C@@H](CCC(=O)O)C(=O)O (γGlu-Leu-Glu-OH),–,227,60
CC(C)C[C@H](NC(=O)CC[C@H](N)C(=O)O)C(=O)NCC(=O)O (γGlu-Leu-Gly-OH),–,–,0
CCC[C@H](NC(=O)[C@H](CC(C)C)NC(=O)CC[C@H](N)C(=O)O)C(=O)O (γGlu-Leu-[Nva]-OH),–,145,70

# More lines, in order of falling IC50 [2], values ahead:
Ki [1],IC50 [2] [µM],inhibition [3] [%],SMILES
–,142,68,CC(C)C[C@H](NC(=O)CC[C@H](N)C(=O)O)C(=O)N[C@@H](CC(N)=O)C(=O)O (γGlu-Leu-Asn-OH)
–,90,87,CC(C)C[C@H](NC(=O)CC[C@H](N)C(=O)O)C(=O)N[C@@H](C)C(=O)O (γGlu-Leu-Ala-OH)
32 µM and 86 µM,27.9,94,CC(C)C[C@H](NC(=O)CC[C@H](N)C(=O)O)C(=O)N[C@@H](CCCCNCCCCN)C(=O)O
33 µM and 59 µM,23,93,CC(C)C[C@H](NC(=O)CC[C@H](N)C(=O)O)C(=O)N[C@@H](CCCCNCCCN)C(=O)O
27 µM and 48 µM,18,93,CC(C)C[C@H](NC(=O)CC[C@H](N)C(=O)O)C(=O)N[C@@H](CCCCN)C(=O)O (γGlu-Leu-Lys-OH)
10.4 µM and 24 µM,13.7,95,CC(C)C[C@H](NC(=O)CC[C@H](N)C(=O)O)C(=O)N[C@@H](CCN)C(=O)O (γGlu-Leu-[Dab]-OH)
14 µM and 25 µM,11.7,94,CC(C)C[C@H](NC(=O)CC[C@H](N)C(=O)O)C(=O)N[C@@H](CO)C(=O)O (γGlu-Leu-Ser-OH)
10 µM and 39 µM,10.3,95,CC(C)C[C@H](NC(=O)CC[C@H](N)C(=O)O)C(=O)N[C@@H](CCCN)C(=O)O (γGlu-Leu-[Orn]-OH)
6.4 µM and 17 µM,9.4,95,CC(C)C[C@H](NC(=O)CC[C@H](N)C(=O)O)C(=O)N[C@@H](CCCN=C(N)N)C(=O)O
7.2 µM and 21 µM,9.1,97,CC(C)C[C@H](NC(=O)CC[C@H](N)C(=O)O)C(=O)N[C@@H](CN)C(=O)O (γGlu-Leu-[Dap]-OH)
